Test results from patent US20200237742A1, “Serdexmethylphenidate Conjugates, Compositions And Methods Of Use Thereof” (priority 2018, published 2020).

System: healthy, nondependent, recreational stimulant users with intranasal insufflation experience
Test: Intranasal study, treatment-emergent adverse events (Table 54)
Method: The study consisted of a Screening Period, an in-clinic Drug Discrimination Phase, a Treatment Phase, and a Follow-Up Visit.
All subjects were required to fast for at least 8 hours prior to each dose of study drug until approximately 4 hours after each dose. Abuse potential measures and pharmacokinetic samples were collected at different times after the administration of study drug. Subjects who successfully completed the Drug Discrimination Phase and who qualified for the Treatment Phase remained as inpatients to enter the Treatment Phase.

[1] = intranasal, d-MPH HCl 40 mg, SDX Cl 80 mg, N = 46 each

Q: `COC(=O)[C@H](c1ccccc1)[C@H]1CCCCN1C(=O)OC[n+]1cccc(C(=O)N[C@@H](CO)C(=O)O)c1.[Cl-]` [serdexmethylphenidate chloride] was tested. Which “respiratory, thoracic, and eye disorders (nasal discomfort, nasal congestion, rhinorrhoea, epistaxis, increased lacrimation)” value (intranasal SDX Cl compared to intranasal d-MPH HCl) did it give?
A: occurred more often

Q: And the “Abdominal distension, number of occurrences” value [1]?
A: 1 E

Q: What about the “Abdominal distension, subjects with event” value [1] of the same molecule?
A: 1 (2.2%) n (%)

Q: What about the “Abdominal pain, number of occurrences” value [1] of the same molecule?
A: 2 E

Q: What about the “Abdominal pain, subjects with event” value [1] of the same molecule?
A: 2 (4.3%) n (%)

Q: And the “Agitation, number of occurrences” value [1]?
A: 1 E

Q: And the “Agitation, subjects with event” value [1]?
A: 1 (2.2%) n (%)

Q: What about the “Anxiety, number of occurrences” value [1] of the same molecule?
A: 1 E

Q: And the “Anxiety, subjects with event” value [1]?
A: 1 (2.2%) n (%)

Q: And the “Any TEAE, number of occurrences” value [1]?
A: 102 E

Q: And the “Any TEAE, subjects with event” value [1]?
A: 36 (78.3%) n (%)

Q: And the “Arthralgia, number of occurrences” value [1]?
A: 1 E

Q: And the “Arthralgia, subjects with event” value [1]?
A: 1 (2.2%) n (%)

Q: And the “Asthenia, number of occurrences” value [1]?
A: 1 E

Q: What about the “Asthenia, subjects with event” value [1] of the same molecule?
A: 1 (2.2%) n (%)

Q: What about the “Back pain, subjects with event” value [1] of the same molecule?
A: 0 n (%)

Q: And the “Blood pressure diastolic increased, subjects with event” value [1]?
A: 0 n (%)

Q: What about the “Bruxism, subjects with event” value [1] of the same molecule?
A: 0 n (%)

Q: What about the “Cardiac disorders, number of occurrences” value [1] of the same molecule?
A: 2 E

Q: What about the “Cardiac disorders, subjects with event” value [1] of the same molecule?
A: 2 (4.3%) n (%)

Q: What about the “Catheter site haematoma, number of occurrences” value [1] of the same molecule?
A: 1 E

Q: What about the “Catheter site haematoma, subjects with event” value [1] of the same molecule?
A: 1 (2.2%) n (%)

Q: What about the “Catheter site swelling, number of occurrences” value [1] of the same molecule?
A: 1 E

Q: What about the “Catheter site swelling, subjects with event” value [1] of the same molecule?
A: 1 (2.2%) n (%)

Q: And the “Change in sustained attention, subjects with event” value [1]?
A: 0 n (%)

Q: What about the “Chest discomfort, subjects with event” value [1] of the same molecule?
A: 0 n (%)

Q: What about the “Chest pain, number of occurrences” value [1] of the same molecule?
A: 1 E

Q: What about the “Chest pain, subjects with event” value [1] of the same molecule?
A: 1 (2.2%) n (%)

Q: And the “Claustrophobia, number of occurrences” value [1]?
A: 1 E

Q: What about the “Claustrophobia, subjects with event” value [1] of the same molecule?
A: 1 (2.2%) n (%)

Q: What about the “Cough, number of occurrences” value [1] of the same molecule?
A: 3 E

Q: And the “Cough, subjects with event” value [1]?
A: 3 (6.5%) n (%)

Q: And the “Decreased appetite, subjects with event” value [1]?
A: 0 n (%)

Q: And the “Defaecation urgency, subjects with event” value [1]?
A: 0 n (%)

Q: What about the “Diarrhoea, number of occurrences” value [1] of the same molecule?
A: 1 E

Q: What about the “Diarrhoea, subjects with event” value [1] of the same molecule?
A: 1 (2.2%) n (%)

Q: What about the “Disturbance in attention, number of occurrences” value [1] of the same molecule?
A: 1 E

Q: And the “Disturbance in attention, subjects with event” value [1]?
A: 1 (2.2%) n (%)

Q: What about the “Dizziness, number of occurrences” value [1] of the same molecule?
A: 1 E

Q: And the “Dizziness, subjects with event” value [1]?
A: 1 (2.2%) n (%)

Q: What about the “Dry mouth, subjects with event” value [1] of the same molecule?
A: 0 n (%)

Q: And the “Dry throat, subjects with event” value [1]?
A: 0 n (%)

Q: What about the “Dysgeusia, number of occurrences” value [1] of the same molecule?
A: 2 E

Q: And the “Dysgeusia, subjects with event” value [1]?
A: 2 (4.3%) n (%)

Q: What about the “Dysmenorrhoea (menstrual cramps), subjects with event” value [1] of the same molecule?
A: 0 n (%)

Q: And the “Dyspepsia, subjects with event” value [1]?
A: 0 n (%)

Q: What about the “Ecchymosis (skin discoloration), number of occurrences” value [1] of the same molecule?
A: 1 E

Q: And the “Ecchymosis (skin discoloration), subjects with event” value [1]?
A: 1 (2.2%) n (%)

Q: What about the “Energy increased, subjects with event” value [1] of the same molecule?
A: 0 n (%)

Q: And the “Epistaxis (nosebleed), number of occurrences” value [1]?
A: 3 E

Q: What about the “Epistaxis (nosebleed), subjects with event” value [1] of the same molecule?
A: 3 (6.5%) n (%)

Q: And the “Euphoric mood, number of occurrences” value [1]?
A: 9 E

Q: And the “Euphoric mood, subjects with event” value [1]?
A: 9 (19.6%) n (%)

Q: What about the “Eye disorders, number of occurrences” value [1] of the same molecule?
A: 9 E

Q: What about the “Eye disorders, subjects with event” value [1] of the same molecule?
A: 8 (17.4%) n (%)

Q: What about the “Eye irritation, subjects with event” value [1] of the same molecule?
A: 0 n (%)

Q: What about the “Eye pain, number of occurrences” value [1] of the same molecule?
A: 1 E

Q: And the “Eye pain, subjects with event” value [1]?
A: 1 (2.2%) n (%)

Q: And the “Fatigue, number of occurrences” value [1]?
A: 1 E

Q: And the “Fatigue, subjects with event” value [1]?
A: 1 (2.2%) n (%)

Q: And the “Feeling hot, subjects with event” value [1]?
A: 0 n (%)

Q: What about the “Feeling of relaxation, number of occurrences” value [1] of the same molecule?
A: 2 E

Q: And the “Feeling of relaxation, subjects with event” value [1]?
A: 2 (4.3%) n (%)

Q: And the “Flushing, subjects with event” value [1]?
A: 0 n (%)

Q: And the “Gastrointestinal disorders, number of occurrences” value [1]?
A: 6 E

Q: And the “Gastrointestinal disorders, subjects with event” value [1]?
A: 4 (8.7%) n (%)

Q: And the “General disorders and administration site conditions, number of occurrences” value [1]?
A: 7 E

Q: And the “General disorders and administration site conditions, subjects with event” value [1]?
A: 6 (13.0%) n (%)

Q: What about the “Haematoma, subjects with event” value [1] of the same molecule?
A: 0 n (%)

Q: And the “Head discomfort, number of occurrences” value [1]?
A: 1 E

Q: And the “Head discomfort, subjects with event” value [1]?
A: 1 (2.2%) n (%)

Q: And the “Headache, number of occurrences” value [1]?
A: 6 E

Q: And the “Headache, subjects with event” value [1]?
A: 5 (10.9%) n (%)

Q: And the “Hyperhidrosis, number of occurrences” value [1]?
A: 2 E

Q: What about the “Hyperhidrosis, subjects with event” value [1] of the same molecule?
A: 2 (4.3%) n (%)

Q: And the “Hypervigilance, number of occurrences” value [1]?
A: 6 E

Q: And the “Hypervigilance, subjects with event” value [1]?
A: 6 (13.0%) n (%)

Q: What about the “Hypopnoea (shallow breathing), subjects with event” value [1] of the same molecule?
A: 0 n (%)

Q: What about the “Infections and infestations, subjects with event” value [1] of the same molecule?
A: 0 n (%)

Q: What about the “Investigations, subjects with event” value [1] of the same molecule?
A: 0 n (%)

Q: And the “Irritability, number of occurrences” value [1]?
A: 1 E

Q: What about the “Irritability, subjects with event” value [1] of the same molecule?
A: 1 (2.2%) n (%)

Q: What about the “Lacrimation increased, number of occurrences” value [1] of the same molecule?
A: 8 E

Q: What about the “Lacrimation increased, subjects with event” value [1] of the same molecule?
A: 8 (17.4%) n (%)

Q: And the “Metabolism and nutrition disorders, subjects with event” value [1]?
A: 0 n (%)

Q: What about the “Muscle tightness, subjects with event” value [1] of the same molecule?
A: 0 n (%)

Q: And the “Muscle twitching, subjects with event” value [1]?
A: 0 n (%)

Q: And the “Musculoskeletal and connective tissue disorders, number of occurrences” value [1]?
A: 1 E

Q: And the “Musculoskeletal and connective tissue disorders, subjects with event” value [1]?
A: 1 (2.2%) n (%)

Q: And the “Nasal congestion, number of occurrences” value [1]?
A: 10 E

Q: And the “Nasal congestion, subjects with event” value [1]?
A: 10 (21.7%) n (%)

Q: And the “Nasal discomfort, number of occurrences” value [1]?
A: 14 E

Q: And the “Nasal discomfort, subjects with event” value [1]?
A: 13 (28.3%) n (%)

Q: And the “Nasal dryness, number of occurrences” value [1]?
A: 1 E

Q: And the “Nasal dryness, subjects with event” value [1]?
A: 1 (2.2%) n (%)

Q: What about the “Nausea, number of occurrences” value [1] of the same molecule?
A: 2 E

Q: What about the “Nausea, subjects with event” value [1] of the same molecule?
A: 2 (4.3%) n (%)

Q: And the “Neck pain, subjects with event” value [1]?
A: 0 n (%)

Q: What about the “Nervous system disorders, number of occurrences” value [1] of the same molecule?
A: 12 E

Q: What about the “Nervous system disorders, subjects with event” value [1] of the same molecule?
A: 11 (23.9%) n (%)

Q: And the “Obsessive-compulsive disorder, subjects with event” value [1]?
A: 0 n (%)

Q: And the “Palpitations, number of occurrences” value [1]?
A: 2 E

Q: What about the “Palpitations, subjects with event” value [1] of the same molecule?
A: 2 (4.3%) n (%)

Q: What about the “Peripheral swelling, subjects with event” value [1] of the same molecule?
A: 0 n (%)

Q: And the “Pharyngeal hypoaesthesia (numbness of throat), subjects with event” value [1]?
A: 0 n (%)

Q: And the “Pharyngitis, subjects with event” value [1]?
A: 0 n (%)

Q: What about the “Phlebitis superficial, subjects with event” value [1] of the same molecule?
A: 0 n (%)

Q: What about the “Phonophobia (fear of loud noises), subjects with event” value [1] of the same molecule?
A: 0 n (%)

Q: What about the “Photophobia, subjects with event” value [1] of the same molecule?
A: 0 n (%)

Q: What about the “Psychiatric disorders, number of occurrences” value [1] of the same molecule?
A: 19 E

Q: And the “Psychiatric disorders, subjects with event” value [1]?
A: 13 (28.3%) n (%)

Q: What about the “Pyrexia, subjects with event” value [1] of the same molecule?
A: 0 n (%)

Q: What about the “Reproductive system and breast disorders, subjects with event” value [1] of the same molecule?
A: 0 n (%)

Q: What about the “Respiratory, thoracic and mediastinal disorders, number of occurrences” value [1] of the same molecule?
A: 42 E

Q: And the “Respiratory, thoracic and mediastinal disorders, subjects with event” value [1]?
A: 25 (54.3%) n (%)

Q: What about the “Restlessness, subjects with event” value [1] of the same molecule?
A: 0 n (%)

Q: And the “Rhinorrhoea (runny nose), number of occurrences” value [1]?
A: 4 E

Q: And the “Rhinorrhoea (runny nose), subjects with event” value [1]?
A: 4 (8.7%) n (%)

Q: And the “Sinus tachycardia, subjects with event” value [1]?
A: 0 n (%)

Q: What about the “Skin and subcutaneous tissue disorders, number of occurrences” value [1] of the same molecule?
A: 4 E

Q: And the “Skin and subcutaneous tissue disorders, subjects with event” value [1]?
A: 4 (8.7%) n (%)

Q: What about the “Skin erosion, number of occurrences” value [1] of the same molecule?
A: 1 E

Q: And the “Skin erosion, subjects with event” value [1]?
A: 1 (2.2%) n (%)

Q: And the “Sneezing, number of occurrences” value [1]?
A: 1 E

Q: What about the “Sneezing, subjects with event” value [1] of the same molecule?
A: 1 (2.2%) n (%)

Q: What about the “Somnolence, number of occurrences” value [1] of the same molecule?
A: 1 E

Q: And the “Somnolence, subjects with event” value [1]?
A: 1 (2.2%) n (%)

Q: What about the “Tachycardia, subjects with event” value [1] of the same molecule?
A: 0 n (%)

Q: And the “Testis discomfort, subjects with event” value [1]?
A: 0 n (%)

Q: And the “Throat irritation, number of occurrences” value [1]?
A: 4 E

Q: And the “Throat irritation, subjects with event” value [1]?
A: 3 (6.5%) n (%)

Q: And the “Upper-airway cough syndrome, number of occurrences” value [1]?
A: 2 E

Q: What about the “Upper-airway cough syndrome, subjects with event” value [1] of the same molecule?
A: 2 (4.3%) n (%)

Q: What about the “Vascular disorders, subjects with event” value [1] of the same molecule?
A: 0 n (%)

Q: And the “Ventricular extrasystoles, subjects with event” value [1]?
A: 0 n (%)

Q: And the “Vessel puncture site bruise, subjects with event” value [1]?
A: 0 n (%)

Q: What about the “Vessel puncture site pain, subjects with event” value [1] of the same molecule?
A: 0 n (%)

Q: And the “Visual impairment, subjects with event” value [1]?
A: 0 n (%)

Q: And the “Vomiting, subjects with event” value [1]?
A: 0 n (%)
